The species entered for one test is Homo sapiens. The experiment in a line: Potency index, ratio of acarbose IC50 to compound IC50 for alpha-glucosidase (unknown origin).
The nature of test [1]: Inhibition of alpha-glucosidase (unknown origin) assessed as reduction in PNP release using PNPG as substrate preincubated for 10 mins followed by substrate addition measured after 40 mins by spectrophotometric method. Details: species or system Homo sapiens.

Structures are written as SMILES.

Broadly, the IC50 is the concentration needed to halve the response being measured.

For `CC(=O)O[C@H]1C=C(CO)C(=O)[C@H](O)[C@H]1O`, in the test filed under Homo sapiens, the Ratio IC50 came to 70. The IC50 in test [1] worked out at 9.07 µM.

As to `C[C@H]1O[C@H](O[C@H]2[C@H](O)[C@@H](O)[C@@H](O[C@H]3[C@H](O)[C@@H](O)C(O)O[C@@H]3CO)O[C@@H]2CO)[C@H](O)[C@@H](O)[C@@H]1N[C@H]1C=C(CO)[C@@H](O)[C@H](O)[C@H]1O` (stereo partly drawn) [ACARBOSE], the IC50 in test [1] is 663 µM.

These data come from ChEMBL document CHEMBL3853345, “Gabosines P and Q, new carbasugars from Streptomyces sp. and their α-glucosidase inhibitory activity” (Bioorg Med Chem Lett, 2016).
